In the NIST ThermoML archive (doi:10.1021/je9006597):

Columns and labels:
[1] = 101 kPa, Liquid; for speed of sound: Pulse-echo method
[2] = xn = mol fraction of the nth substance listed; details: 101 kPa, Liquid; for speed of sound: Pulse-echo method

C1CCCCC1 [cyclohexane]
[1]
Details	mass density [kg/m3]	speed of sound [m/s]	viscosity [mPa·s]
303.15 K	768.3	1228	0.823
308.15 K	764.4	1208	0.772
313.15 K	760.5	1188	0.685

C1CCCCC1 [cyclohexane] + COC(=O)c1ccccc1
[2], x2 = 0
Details	mass density [kg/m3]	speed of sound [m/s]	viscosity [mPa·s]
303.15 K	768.3	1228	0.823
308.15 K	764.4	1208	0.772
313.15 K	760.5	1188	0.685

CCCCCCC [heptane]
[1]
Details	mass density [kg/m3]	speed of sound [m/s]	viscosity [mPa·s]
303.15 K	674.5	1116	0.375
308.15 K	670.3	1092	0.35
313.15 K	667.2	1072	0.325

CCCCCCC [heptane] + COC(=O)c1ccccc1
[2], x2 = 0
Details	mass density [kg/m3]	speed of sound [m/s]	viscosity [mPa·s]
303.15 K	674.5	1116	0.375
308.15 K	670.3	1092	0.35
313.15 K	667.2	1072	0.325

CCCCCC [hexane]
[1]
Details	mass density [kg/m3]	speed of sound [m/s]	viscosity [mPa·s]
303.15 K	649.8	1048	0.283
308.15 K	645.9	1028	0.269
313.15 K	642.2	1008	0.252

CCCCCC [hexane] + COC(=O)c1ccccc1
[2], x2 = 0
Details	mass density [kg/m3]	speed of sound [m/s]	viscosity [mPa·s]
303.15 K	649.8	1048	0.283
308.15 K	645.9	1028	0.269
313.15 K	642.2	1008	0.252

COC(=O)c1ccccc1 [methyl benzoate]
[1]
Details	mass density [kg/m3]	speed of sound [m/s]	viscosity [mPa·s]
303.15 K	1078.3	1380	1.667
308.15 K	1074.4	1364	1.514
313.15 K	1070.3	1348	1.376

COC(=O)c1ccccc1 [methyl benzoate] + C1CCCCC1
[2]
Details	mass density, 303.15 K [kg/m3]	mass density, 308.15 K [kg/m3]	mass density, 313.15 K [kg/m3]	speed of sound, 303.15 K [m/s]	speed of sound, 308.15 K [m/s]	speed of sound, 313.15 K [m/s]	viscosity, 303.15 K [mPa·s]	viscosity, 308.15 K [mPa·s]	viscosity, 313.15 K [mPa·s]
x1 = 0.088	796.9	793	789.1	1240	1220	1200	0.802	0.74	0.675
x1 = 0.1777	825.9	822.1	818.2	1252	1232	1212	0.82	0.757	0.704
x1 = 0.2692	855.8	851.9	848.1	1264	1244	1224	0.854	0.792	0.736
x1 = 0.3668	887.5	883.6	879.7	1276	1260	1240	0.905	0.84	0.781
x1 = 0.4667	918.8	915	911.1	1292	1276	1256	0.977	0.904	0.835
x1 = 0.5639	950	946.1	942.2	1308	1292	1276	1.076	0.999	0.932
x1 = 0.6675	981.7	978	974.1	1324	1308	1292	1.181	1.09	1.004
x1 = 0.7727	1013.3	1009.5	1005.5	1340	1324	1312	1.308	1.197	1.097
x1 = 0.8859	1046.1	1042.2	1038.3	1360	1344	1332	1.478	1.363	1.234
x1 = 1	1078.3	1074.4	1070.3	1380	1364	1348	1.667	1.514	1.376

COC(=O)c1ccccc1 [methyl benzoate] + CCCCCC
[2]
Details	mass density, 303.15 K [kg/m3]	mass density, 308.15 K [kg/m3]	mass density, 313.15 K [kg/m3]	speed of sound, 303.15 K [m/s]	speed of sound, 308.15 K [m/s]	speed of sound, 313.15 K [m/s]	viscosity, 303.15 K [mPa·s]	viscosity, 308.15 K [mPa·s]	viscosity, 313.15 K [mPa·s]
x1 = 0.1027	692.7	689	685.1	1072	1052	1036	0.324	0.301	0.283
x1 = 0.2076	738	734.2	730.3	1100	1080	1064	0.384	0.358	0.335
x1 = 0.3084	781.4	777.6	773.7	1128	1108	1096	0.441	0.409	0.383
x1 = 0.4087	825.2	821.3	817.3	1160	1140	1128	0.527	0.487	0.454
x1 = 0.5114	869.6	865.6	861.7	1196	1180	1164	0.624	0.579	0.542
x1 = 0.6115	913.1	909.2	905.3	1232	1220	1200	0.751	0.688	0.635
x1 = 0.7092	955.5	951.5	947.3	1272	1256	1240	0.915	0.844	0.78
x1 = 0.8069	997.7	993.7	989.7	1312	1292	1280	1.104	1.016	0.935
x1 = 0.9024	1036.9	1033	1029.1	1344	1328	1316	1.37	1.238	1.135
x1 = 1	1078.3	1074.4	1070.3	1380	1364	1348	1.667	1.514	1.376
